Measured values from US10058612B2, “Impaired energy processing disorders and mitochondrial deficiency” (priority 2011, dated 2018).
“Also recorded” adds a separate entry of the source. Like-named read-outs stand apart in the source and are kept apart here.

Key:
[1] = Study in patients with schizophrenia; assay type: in vivo; details: 0.01-100 mg/kg daily over six months
Procedure: (§1) Patients with schizophrenia and free of antipsychotic medication are selected for the study. […] Each week, patients are evaluated for frequency and duration of schizophrenic episodes. Additionally, blood samples are taken each week and biomarkers of oxidative stress, such as the biomarkers described above, are measured.

[2] = test system: Q-less coq3 yeast strains; details: 200 μM total ALA and D4-Lnn
Procedure: FIG. 10. […] Serial dilutions (1:5) starting at 0.2 OD/ml were spotted on YPD solid plate medium. Growth at 30° C.
Serial dilutions (1:5) starting at 0.2 OD/ml were spotted on YPD solid plate medium. Growth was at 30° C.

[3] = Study in patients suffering from Bipolar Disorder; details: in vivo
Procedure: as §1
A similar study can be performed with patients suffering from Bipolar Disorder.

[4] = Incorporation into animal tissues by isotope ratio mass-spectrometry; details: 0.01-100 mg/kg diet; brain, liver, heart, lung
Procedure: Brain, liver, heart, and lung tissue are removed, and homogenate samples from control mice and test compound-treated mice are analyzed for deuterium content as described for Example 7 above.

[5] = test system: coq null mutants (Q-less yeast); assay type: cell-based, S. cerevisiae; details: for viability of cells by quantitative colony counting / viability of coq mutants after fatty acid treatment: 200 μM fatty acid; for viability of cells by quantitative colony counting: 1, 2, 4 h; for viability of coq mutants after fatty acid treatment: plate dilution assay
Procedure: FIG. 3. […] Yeast coq3, coq7 and coq9 null mutants were prepared in the W303 yeast genetic background (WT). Yeast strains were grown in YPD medium (1% Bacto-yeast extract, 2% Bacto-peptone, 2% dextrose) and harvested while in log phase growth (OD600 nm=0.1-1.0). Cells were washed twice with sterile water and resuspended in phosphate buffer (0.10 M sodium phosphate, pH 6.2, 0.2% dextrose) to an OD600 nm=0.2. Samples were removed and 1:5 serial dilutions starting at 0.20 OD/ml were plated on YPD plate medium, to provide a zero time untreated control (shown in top left panel). The designated fatty acids were added to 200 μM final concentration to 20 ml of yeast in phosphate buffer. At 2 h, 4 h, and 16 h samples were removed, 1:5 serial dilutions prepared, and spotted onto YPD plate medium. Pictures were taken after 2 days of growth at 30° C.
FIG. 4. […] The fatty acid sensitive assay was performed as described in FIG. 3, except that 100 μl aliquots were removed at 1, 2, and 4 h and, following dilution, spread onto YPD plates. Pictures were taken after 2 to 2.5 days, and the number of colonies counted. Yeast strains include Wild type (circles), atp2 (triangles), or coq3 (squares). Fatty acid treatments include oleic C18:1 (solid line), linolenic, C18:3, n-3 (dashed line) or 11,11,14,14-D4-linolenic, C18:3, n-3, (dotted line).
Q-less yeast (coq mutants) provide an ideal system to assess in vivo autoxidation of fatty acids. Coenzyme Q (ubiquinone or Q) serves as a small lipophilic antioxidant as well as an electron shuttle in the respiratory chain of the mitochondrial inner membrane.
A plate dilution assay can be used to assess PUFA sensitivity. This assay can be performed by spotting serial five-fold dilutions of aliquots onto YPD plate media (FIG. 3). The sensitivity of the different strains can be observed by visual inspection of the density of cells in each spot.

[6] = Study in patients suffering from Huntington's disease; details: in vivo
Procedure: as §1
A similar study can be performed with patients suffering from Huntington's disease.

[7] = test system: Q-less coq3 yeast strains; test: Yeast incubation with different ratios of LA to D2-LA, plate dilution; assay type: cell-based
Procedure: FIG. 9. […] Wild-type, yeast Q-less coq3, or respiratory deficient cor1 null mutants were incubated in the presence of 200 μM of LA and D2-LA at different ratios of PUFAs. Serial dilutions (1:5) starting at 0.2 OD/ml were spotted on YPD solid plate medium. A zero-time untreated control is shown on the top left. Growth at 30° C.
Wild-type, yeast Q-less coq3, or respiratory deficient cor1 null mutants were incubated in the presence of 200 μM of LA and D2-LA at different ratios of PUFAs, as indicated in FIG. 9. Serial dilutions (1:5) starting at 0.2 OD/ml were spotted on YPD solid plate medium. […] Growth was at 30° C.

[8] = test system: coq null mutants (Q-less yeast); details: cited from earlier work
[9] = test system: wild-type (strain W303-1B) cells; details: four hour treatment; cited from earlier work
[10] = Kinetics of O2 consumption during AMVN-initiated oxidation (glass capillary microvolumeter); assay type: physicochemical; details: for rate of oxidation, ROX: 0.71 M in chlorobenzene, 40 mM AMVN
Procedure: FIG. 7. Kinetics of O2 consumption accompanied the oxidation of 0.71 M LA (plots 1 and 2) and 0.71 M D2-LA (plot 3) in chlorobenzene initiated by 40 mM AMVN at 37° C. Plot 2-0.23 mM HPMC was added to 0.71 M LA.
The kinetics of oxygen consumption during the oxidation of LA and D2-LA was studied with a glass capillary microvolumeter (FIG. 7). The rate of oxidation, ROX, was measured as a slope of [O2] traces. The rate of initiation, RIN, was determined by the inhibitor method with HPMC (“6-hydroxy-2,2,5,7,8-pentamethylbenzochroman”) as a reference inhibitor. RIN was calculated from the induction period of inhibited oxidation, tIND: RIN=2·[HPMC]/tIND. […] See Carpenter, “Determination of Organic Reaction Mechanisms” (John Wiley & Sons, 1984), p. 89.

[11] = design: species or system WT mice; details: both, mouse, in vivo, 90 days
Source text: WT mice were housed at 12 animals (males separate from females) per cage and fed for 90 days ad libitum (typically, 5-6 g/day) on the AIN 93 diet, as pellets, with 6% total fat. […] The animals were sacrificed, organs harvested and stored at low temperature prior to analysis without the use of preservation agents.

[12] = Kinetics of oxidation of mixtures of D2-LA and LA; assay type: physicochemical
Procedure: FIG. 8. Dependence of the rate of oxidation of the mixture of LA and D2-LA in chlorobenzene solution on mixture composition. Conditions: [LA]+[11,11-d2-LA]=0.775 M; [AMVN]=0.0217 M; 37° C. RIN=(1.10±0.08)×10^−7 M/sec.
To simulate the likely in vivo conditions, the kinetics of the oxidation of the mixtures of D2-LA and LA were studied (FIG. 8). In the experiments, the concentration of LA plus 11,11-d2-LA was 0.775 M; the concentration of AMVN was 0.0217 M; and the reactions were carried out at 37° C. The results afforded an RIN of 1.10±0.08×10^−7 M/sec.

Wild-type yeast cells = test: C11-Bodipy 581/591 lipid peroxidation in copper-stressed yeast; assay type: cell-based; details: 200 μM fatty acid 2 hours, then 50 μM CuSO4 60 min
Procedure: Wild-type yeast cells were treated as described above except yeast were treated with 200 μM of the designated fatty acid for 2 hours, washed with sterile water, and were either not treated (triangles) or treated with 50 μM CuSO4 (squares) at room temperature. After 60 min of copper treatment cells were treated with 8 μM C11-Bodipy 581/591 for 30 min at room temperature. Four 100 μl aliquots were plated in a 96-well plate and the fluorescence was measured.

[13] = test system: m-Fibroblasts (Frda^L3/L-; h-I54F); test: Friedreich's ataxia model: viability of FAC/BSO-treated fibroblasts (Promega Cell-Glow); assay type: cell-based; details: for cell survival on co-administration with idebenone: compared with individual administration of idebenone, D-LA, or D-ALA
Procedure: m-Fibroblasts (Frda^L3/L-; h-I54F) have both frataxin alleles deleted and over-express a mutated form of human frataxin (I154F) that is associated with the disease. […] Cells were plated in 48 well-plates and treated with FAC and BSO for 48 h and 24 h respectively. […] At the end of the experiment, cell viability was assessed by the Promega Cell-Glow kit and measured in Arbitrary Luminescence Units (ALU) also expressed as % survival (FIG. 22). In FIG. 22, NT stands for not treated; F stands for iron ammonium citrate; B stands for buthionine sulphoximine; CC stands for carrier control DMSO (dimethylsulfoxide) used to bring the final concentration in the assay to 0.5%; and IDB stands for idebenone.
Likewise, an investigation was undertaken to measure the effects of co-administering idebenone with D-PUFAs (FIG. 23).
Additional experiments were also performed to study the effects of co-administering different D-PUFAs (data not shown). I154F cells were treated with either 100% D-LA, 75% D-LA/25% D-ALA, 50% D-LA/50% D-ALA, and 100% D-ALA.

11,11,14,14-Tetradeutero-cis,cis,cis-octadeca-8,12,15-trienoic acid [D4-ALA]
levels of biomarkers associated with oxidative stress [1]: reduce the levels of biomarkers associated with oxidative stress | minimal amount sufficient to cancel the toxicity of ALA [2]: 15-20% | levels of biomarkers associated with oxidative stress [3]: reduce the levels of biomarkers associated with oxidative stress | presence in tissues and cells (deuterium content) [4]: expected to be found in the tissues and cells analyzed | viability of cells by quantitative colony counting [5]: similar | viability of coq mutants after fatty acid treatment ([5]; listed as D4-linolenic acid): resistant to PUFA-mediated cell killing; also recorded: not killed | levels of biomarkers associated with oxidative stress [6]: reduce neuronal cell death and the levels of biomarkers associated with oxidative stress

[2H]C(/C=C\CCCCC)/C=C\CCCCCCCC(=O)O (centres unmarked) [11,11-D,H-LA, [11-^2H]-linoleic acid]
cell viability ([7]; after 3 hours of treatment, data not shown): no detectable loss in cell viability

[2H]C([2H])(/C=C\C/C=C\CC)C/C=C\CCCCCCC(=O)O [11, 11-D2-linolenic acid, 11,11-Dideutero-cis,cis,cis-octadeca-8,12,15-trienoic acid]
viability of coq mutants after fatty acid treatment [5]: comparable protection

[2H]C([2H])(/C=C\CC)/C=C\CC/C=C\CCCCCCC(=O)O [14, 14-D2-linolenic acid, 14,14-Dideutero-cis,cis,cis-octadeca-8,12,15-trienoic acid]
viability of coq mutants after fatty acid treatment [5]: comparable protection

CC/C=C\C/C=C\C/C=C\CCCCCCCC(=O)O [ALA, cis,cis,cis-9,12,15-Octadecatrienoic acid, reference compound]
viable Q-less (coq2, coq3, and coq5) yeast mutants ([8]; four hour treatment): Less than 1% | wild-type cells remaining viable [9]: 70% | viability of coq mutants after fatty acid treatment [5]: dramatic loss of viability | reduction of viability of the coq mutants ([5]; treatment for 4 h, colony counting): more than 100 fold

[2H]C([2H])(/C=C\CCCCC)/C=C\CCCCCCCC(=O)O [D2-LA, 11,11-Dideutero-cis,cis-octadeca-9,12-dienoic acid]
effect of addition of HPMC on oxidation [10]: did not result in the decrease in ROX and the appearance of any detectable induction period | length of the kinetic chain, ν=ROX/RIN [10]: ≈ 1.1 | rate of oxidation, ROX ([10]; 37° C.): 1.8e-07 M/s | kinetic isotope effect (KIE) from ROX for LA and D2-LA ([10]; chlorobenzene, 37° C.): ≈ 35 | levels of biomarkers associated with oxidative stress [1]: reduce the levels of biomarkers associated with oxidative stress | total fat being deuterated, liver [11]: about 32% | minimal amount sufficient to cancel the toxicity of LA ([7]; 200 μM total LA and D2-LA): 10-15% | levels of biomarkers associated with oxidative stress [3]: reduce the levels of biomarkers associated with oxidative stress | protection of non-deuterated LA against autoxidation ([12]; mixture with LA): ‘protects’ the non-deuterated LA against autoxidation | protection against autoxidation ([12]; mixture with non-deuterated methyl linoleate, data not shown): qualititatively similar effect | levels of biomarkers associated with oxidative stress [6]: reduce neuronal cell death and the levels of biomarkers associated with oxidative stress | levels of lipid peroxidation (Wild-type yeast cells): lower levels of lipid peroxidation similar to yeast not treated with PUFA

[2H]C([2H])(/C=C\CCCCC)/C=C\CCCCCCCC(=O)O [D-LA]
cell viability (ALU, % survival) ([13]; FAC 48 h, BSO 24 h, PUFA added 2 hours after BSO): dose-dependent rescue of viability | cell survival on co-administration with idebenone [13]: increased cell survival

CCCCC/C=C\C/C=C\CCCCCCCC(=O)O [LA, cis,cis-9,12-Octadecadienoic acid, reference compound]
length of the kinetic chain, ν=ROX/RIN [10]: 38±3 | rate of oxidation, ROX ([10]; 37° C.): 6.1e-06 M/s | oxidizability ([10]; n=5): 0.0215±0.008 M^−0.5s^−0.5

CCCCC/C=C\C/C=C\C/C=C\C/C=C\CCCC(=O)O [arachidonic acid]
sensitivity of Q-less yeast to the fatty acid [8]: hypersensitive

CCCCCCCC/C=C\CCCCCCCC(=O)O [oleic acid, reference compound]
sensitivity of Q-less yeast to the fatty acid [8]: behave the same as the wild-type parental strain | viability of cells by quantitative colony counting [5]: similar

D-ALA
cell survival on co-administration with idebenone [13]: increased cell survival
